Reference: paper PMC9967275, “Screening the Pathogen Box to Discover and Characterize New Cruzain and TbrCatL Inhibitors” (Pathogens, 2023)
Where two headings read alike, the source gives them in different places.

How the values were obtained:
cruzain = cruzain (Trypanosoma cruzi, UniProt P25779); assay: biochemical;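 for Cruzain 0’ Inhibition: at 5 µM compound concentration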;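 for Cruzain 10’ Inhibition: at 5 µM compound concentration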;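 for Cruzain Inhibition 0’: at 5 µM compound concentration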;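 for Cruzain Inhibition 10’: at 5 µM compound concentration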
Method in brief: (§1)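 Recombinant enzymes assayed by Z-Phe-Arg-AMC cleavage at 25 °C, fluorescence 340/440 nm over 5–7 min, with 10 min or no enzyme–compound preincubation.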

TbrCatL = molecular target: T1, TbrCatL (Trypanosoma brucei rhodesiense, UniProt Q95PM0); assay: TbrCatL enzymatic inhibition assay (cleavage of fluorogenic substrate Z-FR-AMC); type: biochemical; details: for TbrCatL 0’ Inhibition / TbrCatL 10’ Inhibition: sheet "Screening results";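 for TbrCatL 0’ Inhibition: at 5 µM compound concentration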;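 for TbrCatL 10’ Inhibition: at 5 µM compound concentration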;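 for TbrCatL Inhibition 0’: at 5 µM compound concentration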;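 for TbrCatL Inhibition 10’: at 5 µM compound concentration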
T1 construct: Conor Caffrey (University of California San Diego)
Method in brief: as §1

[1] = 0’ (pre-incubation time), sheet "Screening results"
[2] = 10’ (pre-incubation time), sheet "Screening results"
[3] = 0’ (pre-incubation time), Pathogen Box screening results
[4] = 10’ (pre-incubation time), Pathogen Box screening results
[5] = 0’ (no pre-incubation), sheet Screening results
[6] = 10’ (pre-incubation), sheet Screening results
[7] = read-out: Cruzain 0’ Inhibition, 0’ (pre-incubation time), sheet "Screening results"
[8] = read-out: Cruzain 10’ Inhibition, 10’ (pre-incubation time), sheet "Screening results"
[9] = read-out: Inhibition at 5 µM (Mean ± SEM %) Cruzain 0′, 5 µM, no pre-incubation, initial screening
[10] = read-out: Inhibition at 5 µM (Mean ± SEM %) Cruzain 10′ inc, 5 µM, 10′ pre-incubation, initial screening
[11] = read-out: Inhibition at 100 µM (Mean ± SEM %) Cruzain 0′, 100 µM, no pre-incubation, solid samples
[12] = read-out: Inhibition at 100 µM (Mean ± SEM %) Cruzain 10′ inc, 100 µM, 10′ pre-incubation, solid samples
[13] = read-out: Inhibition of cruzain or TbrCatL (either enzyme) in the initial screening, 5 µM, either cruzain or TbrCatL, with or without pre-incubation
[14] = read-out: Inhibition at 5 µM (Mean ± SEM %) TbrCatL 0′
[15] = read-out: Inhibition at 5 µM (Mean ± SEM %) TbrCatL 10′ inc
[16] = read-out: Inhibition at 100 µM (Mean ± SEM %) TbrCatL 0′
[17] = read-out: Inhibition at 100 µM (Mean ± SEM %) TbrCatL 10′ inc
[18] = read-out: TbrCatL 0’ Inhibition
[19] = read-out: TbrCatL 10’ Inhibition

T1 sequence (Q95PM0 entry or part of it): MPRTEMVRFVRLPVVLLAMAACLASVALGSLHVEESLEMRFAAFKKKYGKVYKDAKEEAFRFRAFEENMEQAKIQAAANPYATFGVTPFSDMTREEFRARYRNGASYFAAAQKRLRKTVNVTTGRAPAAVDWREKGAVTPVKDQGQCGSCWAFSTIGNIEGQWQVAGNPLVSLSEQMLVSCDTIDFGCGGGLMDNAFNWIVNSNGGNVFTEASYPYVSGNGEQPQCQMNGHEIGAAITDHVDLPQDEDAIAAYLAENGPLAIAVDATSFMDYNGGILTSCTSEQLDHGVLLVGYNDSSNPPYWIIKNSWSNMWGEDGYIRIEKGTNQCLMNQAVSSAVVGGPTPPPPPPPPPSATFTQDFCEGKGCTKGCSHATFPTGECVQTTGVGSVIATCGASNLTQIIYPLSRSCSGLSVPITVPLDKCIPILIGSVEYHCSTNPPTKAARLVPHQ
Sequence of cruzain (P25779 123-337 limits assumed): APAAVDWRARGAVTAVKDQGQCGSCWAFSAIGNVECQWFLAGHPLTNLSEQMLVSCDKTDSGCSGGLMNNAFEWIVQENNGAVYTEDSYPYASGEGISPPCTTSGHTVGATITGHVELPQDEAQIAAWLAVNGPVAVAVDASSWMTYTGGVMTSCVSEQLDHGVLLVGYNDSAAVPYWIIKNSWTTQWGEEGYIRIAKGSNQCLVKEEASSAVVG

| Compound | Cruzain 0’ Inhibition (cruzain; [1]) [%] | Cruzain 10’ Inhibition (cruzain; [2]) [%] | TbrCatL 0’ Inhibition (TbrCatL; 0’ (pre-incubation time)) [%] | TbrCatL 10’ Inhibition (TbrCatL; 10’ (pre-incubation time)) [%] | Cruzain Inhibition 0’ (cruzain; [5]) [%] | Cruzain Inhibition 10’ (cruzain; [6]) [%] | TbrCatL Inhibition 0’ (TbrCatL; [5]) [%] | TbrCatL Inhibition 10’ (TbrCatL; [6]) [%] | also measured |
| --- | --- | --- | --- | --- | --- | --- | --- | --- | --- |
| Cc1cc(C)nc(-n2nc(C)cc2Nc2ccccc2)n1 [MMV062221] | -21 | -3 | -32 | -72 | – | – | – | – | – |
| CC(=O)OC[C@H]1O[C@@H]([S-])[C@H](OC(C)=O)[C@@H](OC(C)=O)[C@@H]1OC(C)=O.CC[PH+](CC)CC.[Au] [MMV688978] | – | – | – | – | – | – | – | – | Cruzain Inhibition 0’ (cruzain; [3]): -20%; Cruzain Inhibition 10’ (cruzain; [4]): -71%; TbrCatL Inhibition 0’ (TbrCatL; [3]): -13%; TbrCatL Inhibition 10’ (TbrCatL; [4]): -63% |
| CC(C)(C)C(=O)N(CCCCCCN1C[C@H](O)[C@@H](O)[C@H](O)[C@H]1CO)C1CCCCCC1 [MMV688543] | – | – | – | – | – | – | – | – | Cruzain Inhibition 0’ (cruzain; [3]): -1.2%; Cruzain Inhibition 10’ (cruzain; [4]): 7.5%; TbrCatL Inhibition 0’ (TbrCatL; [3]): -7%; TbrCatL Inhibition 10’ (TbrCatL; [4]): 1.7% |
| N=C(N)c1ccc(-c2cc(-c3ccccc3)on2)cc1 [MMV688514] | – | – | – | – | 14 | 13 | 20 | -6.6 | – |
| FC(F)(F)c1nnc2ccc(Cl)nn12 [MMV069458] | – | – | – | – | 2 | -4 | 4 | 0 | – |
| CC(Oc1ccccc1)C(=O)Nc1nc(-c2ccccn2)cs1 (stereo not shown) [MMV676411] | -2.3 | 0.8 | -14 | -0.8 | – | – | – | – | – |
| N#Cc1ccc(-c2cnc(N)c(-c3ccc(C(N)=O)cc3)n2)cc1 [MMV085499] | – | – | – | – | – | – | – | – | inhibition at 5 µM (cruzain; [7]): 0.5%; inhibition at 5 µM (cruzain; [8]): 25%; inhibition at 5 µM (cruzain; [9]): 2 ± 3%; inhibition at 5 µM (cruzain; [10]): 25 ± 4%; inhibition at 100 µM (cruzain; [11]): 0%; inhibition at 100 µM (cruzain; [12]): 0%; inhibition at 5 µM (cruzain; [13]): ≥ 40%; inhibition at 5 µM (TbrCatL; [14]): 12 ± 8%; inhibition at 5 µM (TbrCatL; [15]): 46 ± 5%; inhibition at 100 µM (TbrCatL; [16]): 26 ± 18%; inhibition at 100 µM (TbrCatL; [17]): 0%; inhibition at 5 µM (TbrCatL; [18]): 9%; inhibition at 5 µM (TbrCatL; [19]): 46% |
| O=C(Nc1cnc2ccccc2c1)c1cccc(-n2cnnn2)c1 [MMV084864] | – | – | – | – | – | – | – | – | Cruzain Inhibition 0’ (cruzain; [3]): 0%; Cruzain Inhibition 10’ (cruzain; [4]): 11%; TbrCatL Inhibition 0’ (TbrCatL; [3]): -11%; TbrCatL Inhibition 10’ (TbrCatL; [4]): 5% |
| O=C(C1CCN(c2cc(-n3cccc3)ncn2)CC1)N1CCc2ccccc2C1 [MMV687172] | -2.4 | -1.9 | 0.3 | 15 | – | – | – | – | – |
| CO[C@@H]1CN(c2ccc(C#CC3(O)CN4CCC3CC4)c(Cc3ccccc3)n2)C[C@H]1O (stereo partly shown) [MMV688415] | – | – | – | – | – | – | – | – | Cruzain Inhibition 0’ (cruzain; [3]): -4%; Cruzain Inhibition 10’ (cruzain; [4]): 16%; TbrCatL Inhibition 0’ (TbrCatL; [3]): -8%; TbrCatL Inhibition 10’ (TbrCatL; [4]): 3% |
| Clc1ccc(Cl)c(CO[C@H]2CCCC[C@@H]2n2ccnc2)c1 [MMV676048] | 2.8 | 5.7 | 0.8 | -3.8 | – | – | – | – | – |
| CCOC(=O)c1cc(-c2csc(Nc3c(C)cc(C)cc3C)n2)on1 [MMV676461] | – | – | – | – | -2.6 | 4 | 6 | 15 | – |
| COC(=O)c1c(NC(=O)c2cc3ccccc3oc2=O)sc2c1CCN(Cc1ccccc1)C2 [MMV676480] | – | – | – | – | 24 | 5.6 | 0.5 | -3.2 | – |
| O=C(C(Cc1c[nH]c2ccccc12)NS(=O)(=O)c1ccc(Cl)cc1)N1CCCCC1 (stereo not shown) [MMV085210] | – | – | – | – | 4.5 | 6.5 | 11 | 8 | – |
| CCCCc1ccc(C(=O)Nc2nccc3ccccc23)nc1 [MMV687254] | -10 | -5 | -7 | -2.6 | – | – | – | – | – |
| O=C(NCCN1CCCC1)c1cc(NCCCCN2CCC(F)(F)CC2)nc2ccc(Cl)cc12 [MMV667494] | – | – | – | – | – | – | – | – | inhibition at 5 µM (cruzain; [7]): 39%; inhibition at 5 µM (cruzain; [8]): 53%; inhibition at 5 µM (cruzain; [9]): 40 ± 1%; inhibition at 5 µM (cruzain; [10]): 53 ± 1%; inhibition at 100 µM (cruzain; [11]): 0%; inhibition at 100 µM (cruzain; [12]): 70 ± 3%; inhibition at 5 µM (cruzain; [13]): ≥ 60%; inhibition at 5 µM (TbrCatL; [14]): 31 ± 5%; inhibition at 5 µM (TbrCatL; [15]): 73 ± 1%; inhibition at 100 µM (TbrCatL; [16]): 0%; inhibition at 100 µM (TbrCatL; [17]): 11 ± 8%; inhibition at 5 µM (TbrCatL; [18]): 32%; inhibition at 5 µM (TbrCatL; [19]): 73% |
| O=C(c1ccco1)N(CCCn1ccnc1)c1nc2c(Cl)cccc2s1 [MMV688936] | – | – | – | – | 5.6 | -0.2 | 19 | 0.6 | – |
| CS(=O)(=O)N1CCC(Cn2nc(Cc3cccc4ccccc34)c3c(N)ncnc32)CC1 [MMV676050] | 0.2 | 8 | 0.1 | 3 | – | – | – | – | – |
| Cc1ccc2[nH]c(C3CCCNC3)c(-c3ccncc3)c2c1 (stereo not shown) [MMV024311] | -7.4 | 15 | -12 | 12 | – | – | – | – | – |

| Compound | Cruzain 0’ Inhibition (cruzain; [1]) [%] | Cruzain 10’ Inhibition (cruzain; [2]) [%] | TbrCatL 0’ Inhibition (TbrCatL; 0’ (pre-incubation time)) [%] | TbrCatL 10’ Inhibition (TbrCatL; 10’ (pre-incubation time)) [%] | Cruzain Inhibition 0’ (cruzain; [5]) [%] | Cruzain Inhibition 10’ (cruzain; [6]) [%] | TbrCatL Inhibition 0’ (TbrCatL; [5]) [%] | TbrCatL Inhibition 10’ (TbrCatL; [6]) [%] | also measured |
| --- | --- | --- | --- | --- | --- | --- | --- | --- | --- |
| O[C@@H](c1cc(C(F)(F)F)nc2c(C(F)(F)F)cccc12)[C@H]1CCCCN1 [MMV000016] | – | – | – | – | -5.4 | -9 | 2.4 | -2.6 | – |
| Cc1noc(C)c1C(=O)N1CCCC(c2[nH]c3c(C)cccc3c2-c2ccncc2)C1 (stereo not shown) [MMV020623] | – | – | – | – | 0.3 | 5 | -5.6 | 4 | – |
| CCOc1ccc2cc(-c3nn(CC4CCN(C)CC4)c4ncnc(N)c34)ccc2c1 [MMV688854] | – | – | – | – | 27 | 11 | 2.7 | -5 | – |
| c1ccc(Oc2ccc(-c3cc(CN4CCOCC4)[nH]n3)cc2)cc1 [MMV676161] | -1.3 | 1.7 | -3 | -2.5 | – | – | – | – | – |
| COc1ccc(Oc2ccc([C@@H](C)N(C)c3ncc4c(N)nc(N)nc4n3)cc2)cc1 [MMV690102] | 0.4 | 12 | -2.5 | 14 | – | – | – | – | – |
| c1ccc(C[C@@H]2CN(c3nccc(Oc4ccc(-n5ccnc5)cc4)n3)CCN2)cc1 [MMV687749] | – | – | – | – | 14 | 13 | 6.4 | 5.6 | – |
| CC(C)(C)OC(=O)N1CCN(c2nccc(-c3ccc(-c4ccc(Cl)cc4)s3)n2)CC1 [MMV688416] | – | – | – | – | 18 | 18 | 22 | 27 | – |
| NC(CC(=O)c1ccc(Cl)cc1Cl)C(Cl)(Cl)Cl (stereo not shown) [MMV676468] | 2.5 | 0.4 | -5 | -2 | – | – | – | – | – |
| CC(C)(C)n1nc(-c2ccccc2)c2c(N)ncnc21 [MMV688548] | – | – | – | – | 8 | 10 | 20 | 12 | – |
| COc1ccc(-c2nnc3ccc(-c4cccc(C(C)C)c4)cn23)cc1OC [MMV688313] | -16 | -10 | -19 | -27 | – | – | – | – | – |
| COc1cc(CN2CCC3(C=Cc4ccccc43)CC2)cc2c1OCO2 [MMV688941] | 1.7 | 6 | -3.2 | -4 | – | – | – | – | – |
| CC(C)(C)C(O)C(Oc1ccc(-c2ccccc2)cc1)n1cncn1 (stereo not shown) [MMV688942] | – | – | – | – | 14 | 9 | 13 | -1.4 | – |
| Cc1ccccc1CN1CCC(O)(c2ccc(Cl)c(C(F)(F)F)c2)CC1 [MMV688846] | – | – | – | – | 10 | 3 | 2.5 | -17 | – |
| CCC(=O)Nc1ccccc1C(=O)Nc1ccccn1 [MMV202553] | – | – | – | – | 15 | 14 | 15 | 7 | – |
| CCc1nc2ccc(C(=O)NCc3ccc4c(c3)OCO4)cn2c1N(C)Cc1cccs1 [MMV407539] | -4 | -3 | -10 | -3.2 | – | – | – | – | – |
| O=C(c1cc2ccccc2o1)N1CCN(Cc2ccc3c(c2)OCO3)CC1 [MMV676520] | – | – | – | – | -1.2 | -3.3 | 5 | -4.7 | – |
| CN(C)c1cc(NC(=O)Nc2ccccc2)c2ccccc2n1 [MMV006901] | – | – | – | – | 13 | 24 | 9 | 20 | – |
| COc1cc(C2=NCCN2)ccc1-c1cn(-c2cccc(C3=NCCN3)c2)nn1 [MMV688407] | 2.2 | 21 | 14 | 36 | – | – | – | – | – |
